# Patent publication US10375956B2, “Herbicidally active 2-(substituted-phenyl)-cyclopentane-1,3-dione compounds and derivatives thereof” (Syngenta Limited, priority 2013, dated 2019)
# How the values were obtained:
# Type in all cases: in vivo
# [1] = system: Alopecurus myosuroides (ALOMY); assay: Test 1 glasshouse assay, post-emergence herbicidal activity; conditions: 312 h, post-emergence (Example 1B Table 2), 250 g/ha, after 13 days, read-out: Percentage phytotoxicity ALOMY
# Outline: (§1)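 Plants sprayed 8 days after sowing with active ingredient in acetone/water (50:50) containing 0.5% Tween 20, grown in glasshouse at 24/16°C day/night, 14 h light, 65% humidity. Phytotoxicity scored visually after 13 days as percentage damage (100% = total damage; 0% = none).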
# [2] = system: Echinochloa crus-galli (ECHCG); assay: as above; conditions: 312 h, post-emergence (Example 1B Table 2), 250 g/ha, after 13 days, read-out: Percentage phytotoxicity ECHCG
# Outline: as §1
# [3] = system: Beta vulgaris (BEAVA, sugarbeet); assay: Test 2 glasshouse assay (IF50 formulation, X-77), post-emergence herbicidal activity; conditions: 360 h, 15 DAA, visual score, read-out: Post-emergence herbicidal activity (percentage phytotoxicity) BEAVA
# Outline: (§2)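 Plants grown ~12 days (range 10-13) in glasshouse (cool species 20/16° C., warm 24/18° C. day/night; 16 h light; 65% humidity), then sprayed post-emergence with IF50 formulation in aqueous 0.2% v/v X-77. Visual percentage phytotoxicity scored 15 days after application (100% = total damage, 0% = none).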
# [4] = system: Brassica napus (BRSNN, rape); assay: as above; conditions: 360 h, 15 DAA, visual score, read-out: Post-emergence herbicidal activity (percentage phytotoxicity) BRSNN
# Outline: as §2
# [5] = system: Glycine max (GLXMA, soybean); assay: as above; conditions: 360 h, 15 DAA, visual score, read-out: Post-emergence herbicidal activity (percentage phytotoxicity) GLXMA
# Outline: as §2
# [6] = system: Brachiaria plantaginea (BRAPL); assay: as above; conditions: Urochloa plantaginea, 360 h, 15 DAA, visual score, read-out: Post-emergence herbicidal activity (percentage phytotoxicity) BRAPL
# Outline: (§3)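 Test plants were sown in pots of standard soil and cultivated for one day (pre-emergence) or about 12 days (post-emergence) under controlled glasshouse conditions. An aqueous spray with IF50 and 0.2% v/v X-77 was then applied. Damage was rated visually as percentage phytotoxicity 20 days (pre) or 15 days (post) later.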
# [7] = system: Digitaria sanguinalis (DIGSA); assay: as above; conditions: 360 h, 15 DAA, visual score, read-out: Post-emergence herbicidal activity (percentage phytotoxicity) DIGSA
# Outline: as §3
# [8] = system: Echinochloa crus-galli (ECHCG); assay: as above; conditions: 360 h, 15 DAA, visual score, read-out: Post-emergence herbicidal activity (percentage phytotoxicity) ECHCG
# Outline: as §3
# [9] = system: Panicum miliaceum (PANMI); assay: as above; conditions: 360 h, 15 DAA, visual score, read-out: Post-emergence herbicidal activity (percentage phytotoxicity) PANMI
# Outline: as §3
# Setaria faberi (SETFA) = assay: as above; conditions: 360 h, 15 DAA, visual score, read-out: Post-emergence herbicidal activity (percentage phytotoxicity) SETFA
# Outline: as §3
# [10] = system: Sorghum vulgare Pers. (SORVU); assay: as above; conditions: Sorghum bicolor, 360 h, 15 DAA, visual score, read-out: Post-emergence herbicidal activity (percentage phytotoxicity) SORVU
# Outline: as §3
smiles,measurement,setting,value
C#CCC1C(=O)C(c2c(C)cc(C)cc2C)C(=O)C1CC#C (centres unmarked) [Compound A42],pest or weed control at 250 g/ha,[1],90%
same,pest or weed control at 250 g/ha,[2],100%
same,plant injury at 125 g/ha,[3]; application rate 125 g/ha,0%
same,plant injury at 500 g/ha,[3]; application rate 500 g/ha,30%
same,plant injury at 125 g/ha,[4]; application rate 125 g/ha,20%
same,plant injury at 500 g/ha,[4]; application rate 500 g/ha,80%
same,plant injury at 125 g/ha,[5]; application rate 125 g/ha,10%
same,plant injury at 500 g/ha,[5]; application rate 500 g/ha,10%
same,pest or weed control at 125 g/ha,[6]; application rate 125 g/ha,100%
same,pest or weed control at 500 g/ha,[6]; application rate 500 g/ha,100%
same,pest or weed control at 125 g/ha,[7]; application rate 125 g/ha,90%
same,pest or weed control at 500 g/ha,[7]; application rate 500 g/ha,100%
same,pest or weed control at 125 g/ha,[8]; application rate 125 g/ha,100%
same,pest or weed control at 500 g/ha,[8]; application rate 500 g/ha,100%
same,pest or weed control at 125 g/ha,[9]; application rate 125 g/ha,100%
same,pest or weed control at 500 g/ha,[9]; application rate 500 g/ha,100%
same,pest or weed control at 125 g/ha,Setaria faberi (SETFA); application rate 125 g/ha,90%
same,pest or weed control at 500 g/ha,Setaria faberi (SETFA); application rate 500 g/ha,100%
same,pest or weed control at 125 g/ha,[10]; application rate 125 g/ha,80%
same,pest or weed control at 500 g/ha,[10]; application rate 500 g/ha,100%
